A word on the ΔTm: it is the shift of the melting midpoint relative to a reference.

The target in this test is T1, Fermitin family homolog 2 (Homo sapiens) (UniProt Q96AC1).
T1 sequence (whole entry): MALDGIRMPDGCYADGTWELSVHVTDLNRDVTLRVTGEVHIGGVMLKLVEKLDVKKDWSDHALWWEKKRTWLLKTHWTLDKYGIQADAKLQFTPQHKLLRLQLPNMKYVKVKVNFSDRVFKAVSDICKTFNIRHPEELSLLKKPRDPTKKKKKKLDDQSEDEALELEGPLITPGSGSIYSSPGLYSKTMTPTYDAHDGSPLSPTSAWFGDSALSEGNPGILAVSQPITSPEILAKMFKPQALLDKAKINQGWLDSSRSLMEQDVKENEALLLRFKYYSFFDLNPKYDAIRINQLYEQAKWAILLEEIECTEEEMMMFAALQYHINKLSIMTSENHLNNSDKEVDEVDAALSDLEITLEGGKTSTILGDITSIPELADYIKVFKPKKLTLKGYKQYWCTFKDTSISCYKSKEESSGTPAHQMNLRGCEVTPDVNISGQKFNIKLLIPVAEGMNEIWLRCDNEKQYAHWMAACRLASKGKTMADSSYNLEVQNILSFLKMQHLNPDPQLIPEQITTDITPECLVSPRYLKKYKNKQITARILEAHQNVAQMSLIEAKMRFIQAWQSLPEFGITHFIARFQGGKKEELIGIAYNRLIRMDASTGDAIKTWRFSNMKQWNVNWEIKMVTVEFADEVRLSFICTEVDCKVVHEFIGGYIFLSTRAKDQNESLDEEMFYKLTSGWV

Each structure is given as a SMILES string.

Description: Binding affinity to His6-tagged KIND2 (unknown origin) expressed in Escherichia coli BL21(DE3) assessed as change in melting temperature by DSF analysis

For `NCCNc1ccnc2cc(OCc3ccccc3)ccc12`, the ΔTm was 0 °C.

The values are drawn from ChEMBL document CHEMBL5375976, “Discovery of Inhibitory Fragments That Selectively Target Spire2-FMN2 Interaction” (J Med Chem, 2023).
